According to patent US10800754B2, “Heterocyclic amide compound” (TAKEDA PHARMACEUTICAL COMPANY LIMITED, priority 2016, dated 2020):

Each compound was assayed against T1, human PRS protein (Homo sapiens, UniProt P07814) (assay: PRS inhibitory activity (ATP/[32P]pyrophosphate exchange enzyme reaction)). Conditions: 300 nM test compound; recombinant human PRS (EPRS 998-1512); read-out: inhibitory rate (%) of PRS.
T1 construct: to construct His-Avi-hEPRS (998-1512) expression plasmid; His tag (N); Avi tag (N); TEV cleavage site (ENLYFQ/GS, encoded by forward primer hEPRS-TEV-NheF) (N); made in house; host or cells: E. coli BL21(DE3)
T1 sequence (P07814 998-1512): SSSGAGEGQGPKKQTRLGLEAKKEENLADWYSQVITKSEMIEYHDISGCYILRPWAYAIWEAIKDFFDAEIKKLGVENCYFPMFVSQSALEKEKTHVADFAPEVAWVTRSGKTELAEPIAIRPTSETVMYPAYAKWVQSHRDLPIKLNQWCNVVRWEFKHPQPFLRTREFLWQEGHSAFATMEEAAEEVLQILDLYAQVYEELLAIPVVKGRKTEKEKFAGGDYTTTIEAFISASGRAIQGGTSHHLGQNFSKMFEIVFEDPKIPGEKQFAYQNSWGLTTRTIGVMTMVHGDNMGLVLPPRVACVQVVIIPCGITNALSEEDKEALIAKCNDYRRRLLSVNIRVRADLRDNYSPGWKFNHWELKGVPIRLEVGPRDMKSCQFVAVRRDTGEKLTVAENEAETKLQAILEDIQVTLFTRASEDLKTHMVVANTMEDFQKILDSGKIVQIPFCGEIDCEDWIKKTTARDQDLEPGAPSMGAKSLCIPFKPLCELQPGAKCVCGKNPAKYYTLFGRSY
Format: biochemical
Experimental: The PRS inhibitory activity of the compounds of the present invention was evaluated by the following method.
An expression plasmid of Catalytic Domain of human EPRS was obtained by PCR using human skeletal muscle cDNA Library (Takara Bio Inc.) as a template and 2 kinds of Primers 5′-[…]-3′ (hEPRS-TEV-NheF) (SEQ ID NO: 1) and 5′-[…]-3′ (hEPRS-St-Not-R) (SEQ ID NO: 2). PCR was performed using PrimeStar GXL DNA Polymerase (Takara Bio Inc.) and included (1) 98° C., 1 min, (2) cycles of 98° C., 10 sec, 65° C., 10 sec, 72° C., 1 min, and (3) reaction at 72° C., 1 min. This was cleaved with Nhe I and Not I (Takara Bio Inc.) and inserted using Ligation High (TOYOBO CO., LTD.) into the Nhe I/Not I site of pET21a (Novagen) with His-Avitag inserted thereinto. This was introduced into ECOS JM109 (NIPPON GENE CO., LTD.) to construct His-Avi-hEPRS (998-1512) expression plasmid.
Recombinant human PRS protein was prepared by transforming the His-Avi-hEPRS (998-1512) expression plasmid prepared above into ECOS Competent E. coli BL21(DE3) (NIPPON GENE CO., LTD.). Escherichia coli obtained by transformation was inoculated into 300 mL of LB medium (1% peptone, 0.5% yeast extract, 0.5% sodium chloride, 0.01% ampicillin) and cultured at 30° C. for 16 hr. The obtained culture medium was transferred into a jar culture tank charged with 6 L of the main fermentation medium (0.3% potassium dihydrogen phosphate, 0.6% disodium hydrogen phosphate, 0.1% ammonium chloride, 0.05% sodium chloride, 0.024% magnesium sulfate, 0.02% NEWPOL LB-625, 1.5% sorbitol, 1.5% casamino acid, 0.5% yeast extract, 0.01% ampicillin) and culturing was started at 37° C., quantity of airflow 5 L/min, stirring rotating speed 400 rpm. At the time point when the turbidity of the culture medium reached about 550 Klett units, the culture temperature was lowered to 16° C., isopropyl-β-D-thiogalactopyranoside (IPTG) was added to the final concentration 0.1 mM, and culturing was performed for another 16 hr to induce expression of human PRS. After completion of culturing, the culture medium was centrifuged at 5,000 rpm for 10 min. The obtained human PRS expressing Escherichia coli was suspended in a buffer containing 50 mM Tris-HCl (pH 8.0), 150 mM NaCl, 1 mM DTT, 5 U/ml Benzonase, 20 mM Imidazole and sonicated using Sonifier (BRANSON). The homogenate was centrifuged (33,000×G, 60 min, Beckman Coulter), the obtained supernatant was subjected to adsorption by passage through Ni-NTA Superflow (QIAGEN) column equilibrated in advance with 50 mM Tris-HCl (pH 8.0), 300 mM NaCl, 1 mM DTT, and elution was performed with a buffer containing 50 mM Tris-HCl (pH 8.0), 300 mM NaCl, 1 mM DTT, 250 mM Imidazole. Furthermore, gel filtration was performed using […] equilibrated in advance with a buffer containing 50 mM Tris-HCl (pH 8.0), 150 mM NaCl, 1 mM DTT, 10% glycerol to give purified human PRS protein. The protein concentration was measured using BCA Protein Assay Kit (PIERCE) and BSA as the standard.
A test compound was dissolved in 5 μL of an assay buffer (50 mM Tris-HCl (pH 7.5), 20 mM KCl, 1 mM DTT, 0.01% Tween 20) and incubated for 60 min with 5 μL of 40 nM human PRS protein dissolved in the assay buffer containing 40 mM MgCl2. An enzyme reaction of the human PRS protein was started by adding 10 μL of a substrate solution containing 300 μM ATP, 160 μM L-Proline, 400 μM pyrophosphate, [^32P]pyrophosphate (PerkinElmer, Waltham, Mass.) prepared to 1 MBq/mL. After incubation at room temperature for 30 min, the reaction was discontinued by adding 50 μL of discontinuation/washing solution (1M HCl, 200 mM sodium pyrophosphate) to the reaction mixture. The reaction solution was transferred to a filter plate (Merck Millipore, Billerica, Mass.) previously added with 200 μL of charcoal solution (0.5% HCl solution containing 10% charcoal (w/v)). […]

Row | inhibition at 0.3 µM [%] | SMILES
1 | 84 | N#C[C@@]1(C2CC2)CCN(c2ccnc(NC(=O)Cc3cccc(Cl)c3)c2)C1=O [Example 1, 2-(3-chlorophenyl)-N-(4-((3S)-3-cyano-3-cyclopropyl-2-oxopyrrolidin-1-yl)pyridin-2-yl)acetamide]
2 | 85 | N#C[C@@]1(C2CC2)CCN(c2ccnc(NC(=O)Cc3ccccc3)c2)C1=O [Example 2, N-(4-((3S)-3-cyano-3-cyclopropyl-2-oxopyrrolidin-1-yl)pyridin-2-yl)-2-phenylacetamide]
3 | 93 | N#C[C@@]1(C2CC2)CCN(c2ccnc(NC(=O)Cc3cccc4ccccc34)c2)C1=O [Example 3, N-(4-((3S)-3-cyano-3-cyclopropyl-2-oxopyrrolidin-1-yl)pyridin-2-yl)-2-(1-naphthyl)acetamide]
4 | 62 | N#C[C@@]1(C2CC2)CCN(c2ccnc(NC(=O)Cc3ccccc3Cl)c2)C1=O [Example 5, 2-(2-chlorophenyl)-N-(4-((3S)-3-cyano-3-cyclopropyl-2-oxopyrrolidin-1-yl)pyridin-2-yl)acetamide]
5 | 94 | N#C[C@@]1(C2CC2)CCN(c2ccnc(NC(=O)Cc3cccc(-c4ccccc4)c3)c2)C1=O [Example 9, 2-(biphenyl-3-yl)-N-(4-((3S)-3-cyano-3-cyclopropyl-2-oxopyrrolidin-1-yl)pyridin-2-yl)acetamide]
6 | 88 | COc1cccc(CC(=O)Nc2cc(N3CC[C@@](C#N)(C4CC4)C3=O)ccn2)c1 [Example 10, N-(4-((3S)-3-cyano-3-cyclopropyl-2-oxopyrrolidin-1-yl)pyridin-2-yl)-2-(3-methoxyphenyl)acetamide]
7 | 85 | Cc1cccc(CC(=O)Nc2cc(N3CC[C@@](C#N)(C4CC4)C3=O)ccn2)c1 [Example 11, N-(4-((3S)-3-cyano-3-cyclopropyl-2-oxopyrrolidin-1-yl)pyridin-2-yl)-2-(3-methylphenyl)acetamide]
8 | 89 | N#C[C@@]1(C2CC2)CCN(c2ccnc(NC(=O)Cc3cccc(F)c3)c2)C1=O [Example 13, N-(4-((3S)-3-cyano-3-cyclopropyl-2-oxopyrrolidin-1-yl)pyridin-2-yl)-2-(3-fluorophenyl)acetamide]
9 | 70 | N#C[C@@]1(C2CC2)CCN(c2ccnc(NC(=O)Cc3ccccc3F)c2)C1=O [Example 14, N-(4-((3S)-3-cyano-3-cyclopropyl-2-oxopyrrolidin-1-yl)pyridin-2-yl)-2-(2-fluorophenyl)acetamide]
10 | 84 | N#C[C@@]1(C2CC2)CCN(c2ccnc(NC(=O)Cc3ccsc3)c2)C1=O [Example 15, N-(4-((3S)-3-cyano-3-cyclopropyl-2-oxopyrrolidin-1-yl)pyridin-2-yl)-2-(3-thienyl)acetamide]
11 | 88 | N#C[C@@]1(C2CC2)CCN(c2ccnc(NC(=O)Cc3cccs3)c2)C1=O [Example 16, N-(4-((3S)-3-cyano-3-cyclopropyl-2-oxopyrrolidin-1-yl)pyridin-2-yl)-2-(2-thienyl)acetamide]
12 | 83 | N#C[C@@]1(C2CC2)CCN(c2ccnc(NC(=O)Cc3ccc(Cl)s3)c2)C1=O [Example 17, 2-(5-chloro-2-thienyl)-N-(4-((3S)-3-cyano-3-cyclopropyl-2-oxopyrrolidin-1-yl)pyridin-2-yl)acetamide]
13 | 89 | N#C[C@@]1(C2CC2)CCN(c2ccnc(NC(=O)Cc3cccc(Br)c3)c2)C1=O [Example 21, 2-(3-bromophenyl)-N-(4-((3S)-3-cyano-3-cyclopropyl-2-oxopyrrolidin-1-yl)pyridin-2-yl)acetamide]
14 | 87 | C=CC[C@]1(C#N)CCN(c2ccnc(NC(=O)Cc3cccc(-c4cnn(C)c4)c3)c2)C1=O [Example 22, N-(4-((3R)-3-allyl-3-cyano-2-oxopyrrolidin-1-yl)pyridin-2-yl)-2-(3-(1-methyl-1H-pyrazol-4-yl)phenyl)acetamide]
15 | 71 | C=CC[C@]1(C#N)CCN(c2ccnc(NC(=O)Cc3cccc(-c4ccsc4)c3)c2)C1=O [Example 24, N-(4-((3R)-3-allyl-3-cyano-2-oxopyrrolidin-1-yl)pyridin-2-yl)-2-(3-(3-thienyl)phenyl)acetamide]
16 | 61 | C=CC[C@]1(C#N)CCN(c2ccnc(NC(=O)Cc3cccc(-c4ccncc4)c3)c2)C1=O [Example 25, N-(4-((3R)-3-allyl-3-cyano-2-oxopyrrolidin-1-yl)pyridin-2-yl)-2-(3-(pyridin-4-yl)phenyl)acetamide]
17 | 94 | N#C[C@@]1(C2CC2)CCN(c2ccnc(NC(=O)Cc3csc4ccccc34)c2)C1=O [Example 28, 2-(1-benzothiophen-3-yl)-N-(4-((3S)-3-cyano-3-cyclopropyl-2-oxopyrrolidin-1-yl)pyridin-2-yl)acetamide]
18 | 80 | N#CC1(C2CCC2)CCN(c2ccnc(NC(=O)Cc3cccc4ccccc34)c2)C1=O (stereo not shown) [Example 33, N-(4-(3-cyano-3-cyclobutyl-2-oxopyrrolidin-1-yl)pyridin-2-yl)-2-(1-naphthyl)acetamide]
19 | 97 | N#C[C@@]1(C2CC2)CCN(c2ccnc(NC(=O)Cc3cccc(-c4cccnc4)c3)c2)C1=O [Example 34, N-(4-((3S)-3-cyano-3-cyclopropyl-2-oxopyrrolidin-1-yl)pyridin-2-yl)-2-(3-(pyridin-3-yl)phenyl)acetamide]
20 | 96 | N#Cc1ccc(-c2cccc(CC(=O)Nc3cc(N4CC[C@@](C#N)(C5CC5)C4=O)ccn3)c2)s1 [Example 36, N-(4-((3S)-3-cyano-3-cyclopropyl-2-oxopyrrolidin-1-yl)pyridin-2-yl)-2-(3-(5-cyano-2-thienyl)phenyl)acetamide]
21 | 88 | Cn1cc(-c2cccc(CC(=O)Nc3cc(N4CCC(C)(C)C4=O)ccn3)c2)cn1 [Example 43, N-(4-(3,3-dimethyl-2-oxopyrrolidin-1-yl)pyridin-2-yl)-2-(3-(1-methyl-1H-pyrazol-4-yl)phenyl)acetamide]
22 | 83 | Cc1cc(N2CCC(C)(C)C2=O)cc(NC(=O)Cc2cccc(-c3cnn(C)c3)c2)n1 [Example 49, N-(4-(3,3-dimethyl-2-oxopyrrolidin-1-yl)-6-methylpyridin-2-yl)-2-(3-(1-methyl-1H-pyrazol-4-yl)phenyl)acetamide]
